For 28 molecules, IC50 results are on record in US20240327430A1 (Breakpoint Therapeutics GmbH, priority 2023, published 2024).

Some results are limits rather than exact numbers.

The target of this assay is truncated Polθ protein (Polθ-Hel containing the helicase domain (67-894)) (Homo sapiens (Human), UniProt O75417). In words: Polθ ATPase assay (Biological Assay 1, ADP-Glo luminescence). Type of assay: biochemical. Particulars: Polθ-Hel 0.5 nM, DNA substrate 500 nM, ATP 60 μM, 23° C.; read-out: Pole ATPase assay IC50. The protocol:
The Polθ ATPase assay was used to evaluate inhibitors of Polθ ATPase activity, in vitro. Experiments were performed using a truncated Polθ protein (Polθ-Hel containing the helicase domain (67-894), ATP and a DNA single strand Oligo (5′-CTGTCCTGCATGATG-3′) in the Polθ assay buffer (20 mM Tis-HCl (pH 8.8), MgCl2 5 mM, tween20 0.01%, NP40 0.01%, BSA 0.01%, DTT 1 mM). 2 μL of assay buffer containing Pole-Hel protein (0.5 nM) and DNA substrate (500 nM) was transferred into assay ready plates, containing 0.04 μL of compounds diluted in DMSO. After a 30 minutes incubation at 23° C. in the dark, the reaction was triggered by adding 2 μL of ATP (60 μM), in assay buffer. After 60 minutes at 23° C., 4 μl of ADP-Glo™ Reagent (Glo 1) was added followed by 40 minutes of incubation, then 8 μl of ADP-Glom kinase Detection Reagent (Glo 2) followed by 60 minutes of incubation at 23° C. Luminescence was then measured using Tecan F200 infinite plate reader. Raw data were analysed using GeneData to generate IC50 values.
The Polθ ATPase assay described in Biological Assay 1 above was used to evaluate inhibitors of Polθ ATPase activity for the compounds described in the Experimental Part B above, in vitro.

Sequence of truncated Polθ protein (Polθ-Hel containing the helicase domain (67-894)) (O75417 67-894): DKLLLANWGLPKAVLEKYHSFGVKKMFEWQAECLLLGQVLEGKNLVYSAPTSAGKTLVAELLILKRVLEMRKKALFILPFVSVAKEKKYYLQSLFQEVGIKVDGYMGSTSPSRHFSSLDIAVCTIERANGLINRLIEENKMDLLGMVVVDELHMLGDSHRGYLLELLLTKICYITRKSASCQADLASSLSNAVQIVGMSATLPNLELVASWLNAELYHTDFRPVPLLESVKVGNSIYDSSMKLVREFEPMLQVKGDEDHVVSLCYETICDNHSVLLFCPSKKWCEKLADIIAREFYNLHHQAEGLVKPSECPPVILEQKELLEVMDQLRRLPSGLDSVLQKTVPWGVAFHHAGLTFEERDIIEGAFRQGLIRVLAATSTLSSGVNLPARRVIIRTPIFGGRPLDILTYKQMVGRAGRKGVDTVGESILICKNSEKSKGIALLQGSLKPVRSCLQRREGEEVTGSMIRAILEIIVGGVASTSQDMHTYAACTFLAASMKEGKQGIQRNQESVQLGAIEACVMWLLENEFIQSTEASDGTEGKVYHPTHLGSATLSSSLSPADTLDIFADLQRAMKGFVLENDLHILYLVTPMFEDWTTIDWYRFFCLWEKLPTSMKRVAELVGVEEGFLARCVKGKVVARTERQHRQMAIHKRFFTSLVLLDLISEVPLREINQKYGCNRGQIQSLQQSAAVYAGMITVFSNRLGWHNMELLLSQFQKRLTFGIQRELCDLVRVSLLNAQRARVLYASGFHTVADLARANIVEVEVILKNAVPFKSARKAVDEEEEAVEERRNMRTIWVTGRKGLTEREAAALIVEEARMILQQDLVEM

Take `COc1cnc(Cl)cc1-c1cc(C)ncc1C(=O)Nc1nc2cnc(N3C[C@@H]4C[C@H]3CO4)nc2s1` [Example 34, 2′-chloro-5′-methoxy-6-methyl-N-{5-[(1S,4S)-2-oxa-5-azabicyclo[2.2.1]heptan-5-yl]-[1,3]thiazolo[5,4-d]pyrimidin-2-yl}-[4,4′-bipyridine]-3-carboxamide]: the IC50 is less than 100 nM.

On to `COc1cnc(Cl)cc1-c1cc(C)ncc1C(=O)Nc1nc2cnc(N3CCCC(C#N)C3)nc2s1` (stereo not shown) [Example 35, 2′-chloro-N-[5-(3-cyanopiperidin-1-yl)-[1,3]thiazolo[5,4-d]pyrimidin-2-yl]-5′-methoxy-6-methyl-[4,4′-bipyridine]-3-carboxamide], for which the IC50 is less than 100 nM.

Regarding `COc1cnc(Cl)cc1-c1cc(C)ncc1C(=O)Nc1nc2ccc(N)cc2s1` [Example 36A, N-(6-amino-1,3-benzothiazol-2-yl)-4-(2-chloro-5-methoxy-4-pyridyl)-6-methyl-pyridine-3-carboxamide], the IC50 lay in the range of 100 to 1000 nM.

Consider `COc1cnc(Cl)cc1-c1cc(C)ncc1C(=O)Nc1nc2ccc(N3CCCCC3=O)cc2s1` [Example 36B, 2′-chloro-5′-methoxy-6-methyl-N-[6-(2-oxopiperidin-1-yl)-1,3-benzothiazol-2-yl]-[4,4′-bipyridine]-3-carboxamide], for which the IC50 was less than 100 nM.

On to `COc1cnc(Cl)cc1-c1cc(C)ncc1C(=O)Nc1nc2ccc(C3=CCCOC3)nc2s1` [Example 37, 2′-chloro-N-[5-(5,6-dihydro-2H-pyran-3-yl)-[1,3]thiazolo[5,4-b]pyridin-2-yl]-5′-methoxy-6-methyl-[4,4′-bipyridine]-3-carboxamide], for which the 50% inhibitory concentration (IC50) is less than 100 nM.

Turning to `COc1cnc(Cl)cc1-c1cc(C)ncc1C(=O)Nc1nc2ccc(-c3ccc(Cl)cn3)cc2s1` [Example 38, 2′-chloro-N-[6-(5-chloropyridin-2-yl)-1,3-benzothiazol-2-yl]-5′-methoxy-6-methyl-[4,4′-bipyridine]-3-carboxamide], the concentration for half-maximal inhibition (IC50) was less than 100 nM.

For the molecule `COc1ccccc1-c1cnccc1C(=O)Nc1nc2ccc(-c3ccc(Cl)cn3)cc2s1` [Example 39, N-[6-(5-chloropyridin-2-yl)-1,3-benzothiazol-2-yl]-3-(2-methoxyphenyl)pyridine-4-carboxamide], the IC50 fell in the range of 100 to 1000 nM.

As to `COc1cnc(Cl)cc1-c1cc(C)ncc1C(=O)Nc1nc2ccc(C3(O)CCOC3)cc2s1` (stereo not shown) [Example 40, 2′-chloro-N-[6-(3-hydroxyoxolan-3-yl)-1,3-benzothiazol-2-yl]-5′-methoxy-6-methyl-[4,4′-bipyridine]-3-carboxamide], the IC50 fell in the range of 100 to 1000 nM.

As to `COc1cnc(Cl)cc1-c1cc(C)ncc1C(=O)Nc1nc2ccc(NS(C)(=O)=O)cc2s1` [Example 41, 2′-chloro-N-(6-methanesulfonamido-1,3-benzothiazol-2-yl)-5′-methoxy-6-methyl-[4,4′-bipyridine]-3-carboxamide], the IC50 was less than 100 nM.

For the molecule `COc1cnc(Cl)cc1-c1cc(C)ncc1C(=O)Nc1nc2cncnc2s1` [Example 42, 2′-chloro-5′-methoxy-6-methyl-N-{[1,3]thiazolo[5,4-d]pyrimidin-2-yl}-[4,4′-bipyridine]-3-carboxamide], the IC50 was less than 100 nM.

Consider `COc1cnc(Cl)cc1-c1cc(C)ncc1C(=O)Nc1nc2ccc(SC)cc2s1` [Example 43, 2′-chloro-5′-methoxy-6-methyl-N-[6-(methylsulfanyl)-1,3-benzothiazol-2-yl]-[4,4′-bipyridine]-3-carboxamide], for which the IC50 was less than 100 nM.

With `COc1cnc(Cl)cc1-c1cc(C)ncc1C(=O)Nc1nc2ccncc2s1` [Example 44, 2′-chloro-5′-methoxy-6-methyl-N-{[1,3]thiazolo[5,4-c]pyridin-2-yl}-[4,4′-bipyridine]-3-carboxamide], the IC50 was less than 100 nM.

With `COc1cnc(Cl)cc1-c1cc(C)ncc1C(=O)Nc1nc2cnc(N3CCN(C(C)=O)CC3)nc2s1` [Example 45, N-[5-(4-acetylpiperazin-1-yl)-[1,3]thiazolo[5,4-d]pyrimidin-2-yl]-2′-chloro-5′-methoxy-6-methyl-[4,4′-bipyridine]-3-carboxamide], the IC50 is less than 100 nM.

Take `COc1cnc(Cl)cc1-c1cc(C)ncc1C(=O)Nc1nc2cnc(NCCO)nc2s1` [Example 46, 2′-chloro-N-{5-[(2-hydroxyethyl)amino]-[1,3]thiazolo[5,4-d]pyrimidin-2-yl}-5′-methoxy-6-methyl-[4,4′-bipyridine]-3-carboxamide]: the half-maximal inhibitory concentration (IC50) is less than 100 nM.

`COc1cnc(Cl)cc1-c1cc(C)ncc1C(=O)Nc1nc2cnc(N3CC(OC)C3)nc2s1` [Example 47, 2′-chloro-5′-methoxy-N-[5-(3-methoxyazetidin-1-yl)-[1,3]thiazolo[5,4-d]pyrimidin-2-yl]-6-methyl-[4,4′-bipyridine]-3-carboxamide]: the IC50 was less than 100 nM.

On to `COc1cnc(Cl)cc1-c1cc(C)ncc1C(=O)Nc1nc2cnc(NC3CCC(O)CC3)nc2s1` (stereo not shown) [Example 48, 2′-chloro-N-{5-[(4-hydroxycyclohexyl)amino]-[1,3]thiazolo[5,4-d]pyrimidin-2-yl}-5′-methoxy-6-methyl-[4,4′-bipyridine]-3-carboxamide], for which the IC50 is less than 100 nM.

Take `COc1cnc(Cl)cc1-c1cc(C)ncc1C(=O)Nc1nc2cnc(N3CCOC[C@H]3C)nc2s1` [Example 50, 2′-chloro-5′-methoxy-6-methyl-N-{5-[(3R)-3-methylmorpholin-4-yl]-[1,3]thiazolo[5,4-d]pyrimidin-2-yl}-[4,4′-bipyridine]-3-carboxamide]: the IC50 was less than 100 nM.

`COc1cnc(Cl)cc1-c1cc(C)ncc1C(=O)Nc1nc2cnc(N3CCOC[C@@H]3C)nc2s1` [Example 51, 2′-chloro-5′-methoxy-6-methyl-N-{5-[(3S)-3-methylmorpholin-4-yl]-[1,3]thiazolo[5,4-d]pyrimidin-2-yl}-[4,4′-bipyridine]-3-carboxamide]: the IC50 is less than 100 nM.

Turning to `COc1cnc(Cl)cc1-c1cc(C)ncc1C(=O)Nc1nc2cnc(NC(C)C)nc2s1` [Example 52, 2′-chloro-5′-methoxy-6-methyl-N-{5-[(propan-2-yl)amino]-[1,3]thiazolo[5,4-d]pyrimidin-2-yl}-[4,4′-bipyridine]-3-carboxamide], the 50% inhibitory concentration (IC50) was less than 100 nM.

As for `COc1cnc(Cl)cc1-c1cc(C)ncc1C(=O)Nc1nc2cnc(N3CCC4(CC3)COC4)nc2s1` [Example 53, 2′-chloro-5′-methoxy-6-methyl-N-(5-{2-oxa-7-azaspiro[3.5]nonan-7-yl}-[1,3]thiazolo[5,4-d]pyrimidin-2-yl)-[4,4′-bipyridine]-3-carboxamide], the IC50 is less than 100 nM.

Regarding `COc1cnc(Cl)cc1-c1cc(C)ncc1C(=O)Nc1nc2cnc(N3CC4CCC(C3)N4)nc2s1` [Example 54, 2′-chloro-N-(5-{3,8-diazabicyclo[3.2.1]octan-3-yl}-[1,3]thiazolo[5,4-d]pyrimidin-2-yl)-5′-methoxy-6-methyl-[4,4′-bipyridine]-3-carboxamide], the IC50 was less than 100 nM.

As to `COc1cnc(Cl)cc1-c1cc(C)ncc1C(=O)Nc1nc2cnc(N3CCNCC3)nc2s1` [Example 55, 2′-chloro-5′-methoxy-6-methyl-N-[5-(piperazin-1-yl)-[1,3]thiazolo[5,4-d]pyrimidin-2-yl]-[4,4′-bipyridine]-3-carboxamide], the IC50 is less than 100 nM.

On to `COc1cnc(Cl)cc1-c1cc(C)ncc1C(=O)Nc1nc2ccc(N3CCCC3=O)cc2s1` [Example 56, 2′-chloro-5′-methoxy-6-methyl-N-[6-(2-oxopyrrolidin-1-yl)-1,3-benzothiazol-2-yl]-[4,4′-bipyridine]-3-carboxamide], for which the concentration for half-maximal inhibition (IC50) was less than 100 nM.

As to `COc1cnc(Cl)cc1-c1cc(C)ncc1C(=O)Nc1nc2ccc(N3CCOCC3=O)cc2s1` [Example 57, 2′-chloro-5′-methoxy-6-methyl-N-[6-(3-oxomorpholin-4-yl)-1,3-benzothiazol-2-yl]-[4,4′-bipyridine]-3-carboxamide], the half-maximal inhibitory concentration (IC50) is less than 100 nM.

Consider `COc1cnc(Cl)cc1-c1cc(C)ncc1C(=O)Nc1nc2ccc(N3CCN(C)C3=O)cc2s1` [Example 58, 2′-chloro-5′-methoxy-6-methyl-N-[6-(3-methyl-2-oxoimidazolidin-1-yl)-1,3-benzothiazol-2-yl]-[4,4′-bipyridine]-3-carboxamide], for which the IC50 was less than 100 nM.

As for `COc1cnc(Cl)cc1-c1cc(C)ncc1C(=O)Nc1nc2ccc(N3CCOC3=O)cc2s1` [Example 59, 2′-chloro-5′-methoxy-6-methyl-N-[6-(2-oxo-1,3-oxazolidin-3-yl)-1,3-benzothiazol-2-yl]-[4,4′-bipyridine]-3-carboxamide], the IC50 is less than 100 nM.

Regarding `COc1cnc(Cl)cc1-c1cc(C)ncc1C(=O)Nc1nc2ccc(N3CCNC3=O)cc2s1` [Example 60, 2′-chloro-5′-methoxy-6-methyl-N-[6-(2-oxoimidazolidin-1-yl)-1,3-benzothiazol-2-yl]-[4,4′-bipyridine]-3-carboxamide], the IC50 is less than 100 nM.

Consider `COc1cnc(Cl)cc1-c1cc(C)ncc1C(=O)Nc1nc2cnc(N3CCCCC3=O)cc2s1` [Example 61, 2′-chloro-5′-methoxy-6-methyl-N-[6-(2-oxopiperidin-1-yl)-[1,3]thiazolo[4,5-c]pyridin-2-yl]-[4,4′-bipyridine]-3-carboxamide], for which the IC50 is less than 100 nM.

Broadly, the IC50 is the point on the concentration scale where inhibition reaches its midpoint.
